The values below come from ChEMBL document CHEMBL1649172, “Novel imino sugar derivatives demonstrate potent antiviral activity against flaviviruses” (Antimicrob Agents Chemother, 2009).

Calls of active or inactive are those of the source. No cut-off for these calls is given here.

Data set [1] is described as follows: Antiviral activity against 1 MOI Bovine viral diarrhea virus NADL infected in MDBK cells assessed as reduction in viral titer after 72 hrs by plaque forming assay. Format: functional, cell-based, Bovine viral diarrhea virus 1-NADL. Conditions: Bovine viral diarrhea virus isolates and strains.
Data set [2] can be described thus: Cytotoxicity against MDBK cells by MTT assay. Format: cell-based, Bos taurus. The following applies: cattle.
A short description of data set [3]: Selectivity index, ratio of CC50 for bovine MDBK cells to EC50 for 1 MOI Bovine viral diarrhea virus infected in bovine MDBK cells. Format: toxicity, cell-based. The following applies: cattle; read-out: Ratio CC50/EC50.
Data set [4] deals with Dengue virus. Kind of data set: Antiviral activity against Dengue virus C infected in african green monkey Vero cells assessed as reduction in viral titer after 72 hrs by plaque reduction assay. The format is functional, organism-based.
The test system of the next data set is West Nile virus. As to the kind of experiment: Antiviral activity against West Nile virus infected in baby hamster kidney cells assessed as reduction in viral titer after 72 hrs by plaque reduction assay. Format: functional, organism-based.
Data set [5] can be described thus: Cytotoxicity against BHK cells by MTT assay. Format: cell-based, Mesocricetus auratus. The following applies: hamster.
Data set [6] is described as follows: Cytotoxicity against african green monkey Vero cells by MTT assay. The format is cell-based. Conditions: chlorocebus sabaeus.
Data set [7] deals with Bovine viral diarrhea virus 1. As to the kind of experiment: Antiviral activity against Bovine viral diarrhea virus 1. The format is functional, organism-based. Conditions: Bovine viral diarrhea virus isolates and strains.
The test system of data set [8] is Dengue virus. Kind of data set: Antiviral activity against Dengue virus. Format: functional, organism-based.
Data set [9] concerns Bovine viral diarrhea virus 1-NADL. As to the kind of experiment: Inhibition of […] assessed as reduced E2 protein mobility after 24 hrs by Western blotting.
Data set [10] deals with MDBK. As to the kind of experiment: Antiviral activity against 1 MOI Bovine viral diarrhea virus NADL infected in bovine MDBK cells assessed as inhibition of viral RNA replication at 100 uM after 6 hrs by RT-PCR. Format: functional, cell-based. Conditions: Bovine viral diarrhea virus 1-NADL.
Data set [11] has as its system MDBK. Kind of data set: Antiviral activity against 1 MOI Bovine viral diarrhea virus NADL infected in bovine MDBK cells assessed as inhibition of viral RNA replication at 100 uM after 12 hrs by RT-PCR. The format is functional, cell-based. Conditions: Bovine viral diarrhea virus 1-NADL.
A short description of data set [12]: Antiviral activity against 1 MOI Bovine viral diarrhea virus NADL infected in bovine MDBK cells assessed as inhibition of viral RNA replication at 100 uM after 24 hrs by RT-PCR. Format: functional, Bovine viral diarrhea virus 1-NADL. Conditions: Bovine viral diarrhea virus isolates and strains.
In data set [13] the test system is MDBK. Kind of data set: Antiviral activity against 1 MOI Bovine viral diarrhea virus NADL infected in bovine MDBK cells assessed as inhibition of viral RNA replication at 80 uM after 6 hrs by RT-PCR. Format: functional, cell-based. The following applies: Bovine viral diarrhea virus 1-NADL.
The subject of data set [14] is MDBK. As to the kind of experiment: Antiviral activity against 1 MOI Bovine viral diarrhea virus NADL infected in bovine MDBK cells assessed as inhibition of viral RNA replication at 80 uM after 12 hrs by RT-PCR. Format: functional, cell-based. Conditions: Bovine viral diarrhea virus 1-NADL.
Data set [15] in a line: (§1) Antiviral activity against 1 MOI Bovine viral diarrhea virus NADL infected in bovine MDBK cells assessed as inhibition of viral RNA replication at 80 uM after 24 hrs by RT-PCR. Conditions: Bovine viral diarrhea virus isolates and strains. Format: functional, Bovine viral diarrhea virus 1-NADL.
A short description of data set [16]: Antiviral activity against 1 MOI Bovine viral diarrhea virus NADL infected in bovine MDBK cells assessed as inhibition of intracellular viral RNA production at 100 uM after 24 hrs by RT-PCR. Format: functional, Bovine viral diarrhea virus 1-NADL. Conditions: Bovine viral diarrhea virus isolates and strains.
Data set [17] can be described thus: Antiviral activity against 1 MOI Bovine viral diarrhea virus NADL infected in bovine MDBK cells assessed as inhibition of intracellular viral RNA production at 80 uM after 24 hrs by RT-PCR. The format is functional, Bovine viral diarrhea virus 1-NADL. The following applies: Bovine viral diarrhea virus isolates and strains.
Data set [18] is described as follows: Antiviral activity against 1 MOI Bovine viral diarrhea virus NADL infected in bovine MDBK cells assessed as inhibition of extracellular viral RNA production at 100 uM after 24 hrs by RT-PCR. Format: functional, Bovine viral diarrhea virus 1-NADL. Conditions: Bovine viral diarrhea virus isolates and strains.
Data set [19] can be described thus: Antiviral activity against 1 MOI Bovine viral diarrhea virus NADL infected in bovine MDBK cells assessed as inhibition of extracellular viral RNA production at 80 uM after 24 hrs by RT-PCR. Conditions: Bovine viral diarrhea virus isolates and strains. Format: functional, Bovine viral diarrhea virus 1-NADL.
Data set [20] can be described thus: Antiviral activity against 1 MOI Bovine viral diarrhea virus NADL infected in bovine MDBK cells assessed as reduction in viral titer at 100 uM after 24 hrs by RT-PCR. The format is functional, Bovine viral diarrhea virus 1-NADL. The following applies: Bovine viral diarrhea virus isolates and strains.
Data set [21] in a line: Antiviral activity against 1 MOI Bovine viral diarrhea virus NADL infected in bovine MDBK cells assessed as reduction in viral titer at 80 uM after 24 hrs by RT-PCR. Format: functional, Bovine viral diarrhea virus 1-NADL. The following applies: Bovine viral diarrhea virus isolates and strains.
Data set [22] concerns MDBK. Described as §1. Format: functional. The following applies: Bovine viral diarrhea virus 1-NADL.

For `OC[C@@H]1[C@@H](O)[C@H](O)[C@@H](O)CN1CCCCCCC1(O)CCCCC1`, in [1], the EC50 worked out at 18 µM and the EC90 is 82.5 µM. In [2], this compound came in with a CC50 of more than 500 µM. The selectivity ratio in data set [3] is more than 28.
`OC[C@@H]1[C@@H](O)[C@H](O)[C@@H](O)CN1CCCCCOCC1CC2CCC1C2` (stereo partly specified): in data set [1], the EC50 was 2.9 µM and the EC90 came out at 22 µM. In [2], this compound came in with a CC50 of more than 500 µM. For the same compound, the selectivity ratio in data set [3] was more than 172.
On to `OC[C@@H]1[C@@H](O)[C@H](O)[C@@H](O)CN1CCCCCCOC1CC2CCC1C2` (stereo partly specified), for which, in data set [1], the EC50 amounted to 4.5 µM and the EC90 was found to be 47 µM. Besides, the CC50 in [2] is more than 500 µM. The selectivity ratio in data set [3] was more than 111.
For the compound `C[C@@H]1CCCCC1OCCCCCCN1C[C@H](O)[C@@H](O)[C@H](O)[C@H]1CO` (stereo partly specified), the EC50 amounted to 3.3 µM in [1], 0.075 µM with Dengue virus [4] and 3.5 µM with West Nile virus. In addition, the EC90 in data set [1] worked out at 14.3 µM; in the data set with Dengue virus [4], 0.6 µM; with West Nile virus it was 33 µM. Besides, the CC50 in [2] is more than 500 µM; in [5] it was 70 µM; in [6], 65 µM. Further, the selectivity ratio in [3] is more than 151.
Turning to `CCCC(O)(CCC)CCCCCN1C[C@H](O)[C@@H](O)[C@H](O)[C@H]1CO`, in data set [1], the EC50 was found to be 9.5 µM and the EC90 is more than 100 µM. This compound also displayed a half-maximal cytotoxic concentration (CC50) in [2] of more than 500 µM. In addition, in data set [3], the selectivity ratio was more than 53.
As for `CCCCN1C[C@H](O)[C@@H](O)[C@H](O)[C@H]1CO` [MIGLUSTAT], the EC50 (in data set [7]; in the data set with Dengue virus [8]) was 100 µM in each case.
As for `CCC(O)(CC)CCCCCN1C[C@H](O)[C@@H](O)[C@H](O)[C@H]1CO`, in data set [1], the EC50 was 22 µM and the EC90 is more than 100 µM. Moreover, the CC50 in [2] was more than 500 µM. Also, in data set [3], the selectivity ratio is more than 23.
For the compound `Cc1ccc(C)c(OCCCCCCN2C[C@H](O)[C@@H](O)[C@H](O)[C@H]2CO)c1`, the results for the EC50 (in [1]; in the data set with Dengue virus [4]; in the data set on West Nile virus) were 3 µM, 0.1 µM and 1.5 µM, respectively. In addition, the figures for the EC90 (in data set [1]; with Dengue virus [4]; with West Nile virus) were 24.9 µM, 0.6 µM and 20 µM, respectively. The CC50 in [2] came to 485 µM; in [5], 75 µM; in data set [6], 85 µM. For the same compound, the selectivity ratio in [3] was determined as 162.
Regarding `CC(C)[C@@H]1CC[C@@H](C)CC1OCCCCCCN1C[C@H](O)[C@@H](O)[C@H](O)[C@H]1CO` (stereo partly specified), the values for the EC50 (in data set [1]; with Dengue virus [4]; in the data set on West Nile virus) were 1.6 µM, 0.1 µM and 4.75 µM, respectively. In addition, the EC90 is 14.8 µM in data set [1], 0.2 µM with Dengue virus [4] and 19 µM in the data set on West Nile virus. Further, the CC50 in [2] came out at 235 µM; in data set [5], 70 µM; in data set [6], 80 µM. For the same compound, the selectivity ratio in [3] was determined as 146.
As to `OC[C@@H]1[C@@H](O)[C@H](O)[C@@H](O)CN1CCCCCC1(O)CCCCC1`, the EC50 is 10.5 µM in data set [1], 4 µM with Dengue virus [4] and 4.5 µM in the data set on West Nile virus. In addition, the EC90 in [1] was more than 100 µM; in the data set with Dengue virus [4], 8.7 µM. Moreover, the CC50 in data set [2] is more than 500 µM; in [5], more than 100 µM; in data set [6], more than 40 µM. For the same compound, in data set [3], the selectivity ratio is more than 48. Further, the inhibition result in data set [9] was “Dose-dependent effect”. The inhibition entry in the data set on MDBK [10], with MDBK [11], in the data set with MDBK [13] and with MDBK [14] was “inactive” throughout. In addition, the inhibition at 100 µM in data set [12] was 40%; in data set [16], 40%; in data set [18], 73%; in data set [20], 89%. Also, the inhibition at 80 µM in [15] came to 40%; in [17], 40%; in data set [19] it was 73%; in data set [21], 89%.
As to `CCCCCCCCCN1C[C@H](O)[C@@H](O)[C@H](O)[C@H]1CO`, the results for the concentration giving a half-maximal response (EC50) (in [1]; in the data set with Dengue virus [4]; in the data set on West Nile virus) were 7.3 µM, 1.1 µM and 4 µM, respectively. Besides, the EC90 in data set [1] turned out to be 71 µM; in the data set with Dengue virus [4], 3.3 µM. In addition, the results for the CC50 in [2], in [5] and in data set [6] were 245 µM, 20 µM and more than 40 µM, respectively. In data set [3], the selectivity ratio was 33.
Regarding `CC1CCC(OCCCCCCN2C[C@H](O)[C@@H](O)[C@H](O)[C@H]2CO)CC1` (stereo partly specified), the figures for the EC50 (in data set [1]; with Dengue virus [4]) were 7.1 µM and 6.75 µM, respectively. For the same compound, the EC90 in data set [1] is 53 µM; with Dengue virus [4], 13 µM. Further, the values for the CC50 in [2] and in data set [6] were more than 500 µM and more than 40 µM, respectively. Besides, the selectivity ratio in data set [3] was more than 70. For the same compound, the inhibition result in the data set with MDBK [11] and in the data set on MDBK [14] was “inactive” throughout. The inhibition at 100 µM in data set [12] was 40%; in data set [16] it was 40%; in data set [18], 73%; in data set [20], 89%. In addition, the inhibition at 80 µM turned out to be 40% in [15], 40% in [17], 73% in data set [19] and 89% in data set [21]. Moreover, the inhibition entry in the data set with MDBK [22] was “Active”.
